Where two headings read alike, the source gives them in different places.
Biological target: human sodium ion channel 1.7 (hNav1.7) (Homo sapiens, UniProt Q15858)
Experiment: Blocking effect against sodium ion channel Nav1.7, IonFlux16 auto patch clamp in hNav1.7 HEK293 cells
Assay type: cell-based
[1] = hNav1.7 HEK293 cells, inhibition of peak current after 50 seconds treatment, eight concentrations, read-out: IC50

Sequence of human sodium ion channel 1.7 (hNav1.7) (Q15858 whole entry): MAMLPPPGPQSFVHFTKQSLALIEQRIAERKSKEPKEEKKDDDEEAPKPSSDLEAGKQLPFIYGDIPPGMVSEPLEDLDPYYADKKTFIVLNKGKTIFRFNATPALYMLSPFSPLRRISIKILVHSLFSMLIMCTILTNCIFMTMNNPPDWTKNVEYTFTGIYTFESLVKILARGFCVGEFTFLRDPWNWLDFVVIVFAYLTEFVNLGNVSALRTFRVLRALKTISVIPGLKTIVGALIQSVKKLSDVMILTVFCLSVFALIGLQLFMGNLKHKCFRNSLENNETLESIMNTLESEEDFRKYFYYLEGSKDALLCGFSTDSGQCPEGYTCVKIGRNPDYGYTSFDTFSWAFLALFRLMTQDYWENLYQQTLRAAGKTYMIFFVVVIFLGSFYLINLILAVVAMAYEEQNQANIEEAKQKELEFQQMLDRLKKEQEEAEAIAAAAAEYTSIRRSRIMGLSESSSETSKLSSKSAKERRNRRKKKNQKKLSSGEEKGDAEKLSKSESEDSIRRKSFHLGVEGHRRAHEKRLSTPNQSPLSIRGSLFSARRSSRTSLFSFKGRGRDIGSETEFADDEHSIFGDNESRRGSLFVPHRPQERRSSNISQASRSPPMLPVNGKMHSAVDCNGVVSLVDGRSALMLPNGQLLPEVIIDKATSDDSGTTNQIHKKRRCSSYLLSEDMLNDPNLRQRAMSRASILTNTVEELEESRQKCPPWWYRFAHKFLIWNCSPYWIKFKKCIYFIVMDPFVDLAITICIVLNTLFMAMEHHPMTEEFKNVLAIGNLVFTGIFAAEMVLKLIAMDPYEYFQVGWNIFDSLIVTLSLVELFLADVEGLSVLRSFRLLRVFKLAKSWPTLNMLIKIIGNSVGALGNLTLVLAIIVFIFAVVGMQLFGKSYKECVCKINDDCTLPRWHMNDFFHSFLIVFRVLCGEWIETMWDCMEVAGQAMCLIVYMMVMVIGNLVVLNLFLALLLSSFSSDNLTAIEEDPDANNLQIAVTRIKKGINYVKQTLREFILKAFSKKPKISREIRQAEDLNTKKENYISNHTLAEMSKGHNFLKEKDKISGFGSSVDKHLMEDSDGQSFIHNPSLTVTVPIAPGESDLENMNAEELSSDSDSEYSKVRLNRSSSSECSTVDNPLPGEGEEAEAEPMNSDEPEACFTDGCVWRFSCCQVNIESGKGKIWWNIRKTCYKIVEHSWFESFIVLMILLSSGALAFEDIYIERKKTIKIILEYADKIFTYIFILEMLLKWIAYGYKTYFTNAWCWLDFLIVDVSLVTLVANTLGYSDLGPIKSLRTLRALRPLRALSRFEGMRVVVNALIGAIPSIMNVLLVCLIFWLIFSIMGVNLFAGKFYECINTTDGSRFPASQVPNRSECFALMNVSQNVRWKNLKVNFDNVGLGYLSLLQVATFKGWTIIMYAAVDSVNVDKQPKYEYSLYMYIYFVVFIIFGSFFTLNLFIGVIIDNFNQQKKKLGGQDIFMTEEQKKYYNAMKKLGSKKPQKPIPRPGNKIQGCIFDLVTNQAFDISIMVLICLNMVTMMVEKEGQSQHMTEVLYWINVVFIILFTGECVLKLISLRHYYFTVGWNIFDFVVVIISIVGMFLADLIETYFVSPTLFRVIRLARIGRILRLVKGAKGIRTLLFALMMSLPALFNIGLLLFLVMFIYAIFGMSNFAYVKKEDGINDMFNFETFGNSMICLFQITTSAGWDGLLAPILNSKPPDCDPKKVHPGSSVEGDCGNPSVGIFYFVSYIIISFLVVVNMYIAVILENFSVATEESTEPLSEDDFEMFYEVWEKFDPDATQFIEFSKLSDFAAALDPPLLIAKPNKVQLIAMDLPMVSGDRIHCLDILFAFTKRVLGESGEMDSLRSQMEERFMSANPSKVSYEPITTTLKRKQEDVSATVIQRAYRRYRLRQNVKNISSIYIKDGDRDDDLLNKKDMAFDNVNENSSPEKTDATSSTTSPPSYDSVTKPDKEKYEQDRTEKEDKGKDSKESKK

## CS(=O)(=O)NC(=O)c1cc(Cl)c(-n2nc(-c3ccc(C(F)(F)F)cc3)c3ccccc32)cc1F [Example 178, 5-chloro-2-fluoro-N-(methylsulfonyl)-4-(3-(4-(trifluoromethyl)phenyl)-1H-indazol-1-yl)benzamide]
[1]
  IC50: 330 nM

## CS(=O)(=O)NC(=O)c1cc(Cl)c(-n2nc(-c3ccc(F)cc3)c3ccccc32)cc1F [Example 179, 5-chloro-2-fluoro-4-(3-(4-fluorophenyl)-1H-indazol-1-yl)-N-(methylsulfonyl)benzamide]
[1]
  IC50: 390 nM

## CS(=O)(=O)NC(=O)c1cc(Cl)c(-n2nc(-c3cccnc3)c3ccccc32)cc1F [Example 180, 5-chloro-2-fluoro-N-(methylsulfonyl)-4-(3-(pyridin-3-yl)-1H-indazol-1-yl)benzamide]
[1]
  IC50: > 10000 nM

## CS(=O)(=O)NC(=O)c1cc(Cl)c(-n2nc(-c3cccc(C#N)c3)c3ccccc32)cc1F [Example 181, 5-chloro-4-(3-(3-cyanophenyl)-1H-indazol-1-yl)-2-fluoro-N-(methylsulfonyl)benzamide]
[1]
  IC50: 837 nM

## CS(=O)(=O)NC(=O)c1ccc(-n2nc(-c3cccc(C#N)c3)c3ccccc32)c(C#N)c1 [Example 183, 3-cyano-4-(3-(3-cyanophenyl)-1H-indazol-1-yl)-N-(methylsulfonyl)benzamide]
[1]
  IC50: > 10000 nM

## CS(=O)(=O)NC(=O)c1cc(Cl)c(-n2nc(-c3ccc(Cl)cc3F)c3ccccc32)cc1F [Example 184, 5-chloro-4-(3-(4-chloro-2-fluorophenyl)-1H-indazol-1-yl)-2-fluoro-N-(methylsulfonyl)benzamide]
[1]
  IC50: 70 nM

## CS(=O)(=O)NC(=O)c1cc(Cl)c(-n2cc(-c3ccc(F)cc3)c3cc(Cl)cnc32)cc1F [Example 185, 5-chloro-4-(5-chloro-3-(4-fluorophenyl)-1H-pyrrolo[2,3-b]pyridin-1-yl)-2-fluoro-N-(methylsulfonyl)benzamide]
[1]
  IC50: 80 nM

## CS(=O)(=O)NC(=O)c1cc(Cl)c(-n2cc(-c3ccc(F)cc3F)c3cc(Cl)cnc32)cc1F [Example 186, 5-chloro-4-(5-chloro-3-(2,4-difluorophenyl)-1H-pyrrolo[2,3-b]pyridin-1-yl)-2-fluoro-N-(methylsulfonyl)benzamide]
[1]
  IC50: 80 nM

## CS(=O)(=O)NC(=O)c1cc(Cl)c(-n2cc(-c3ccc(C#N)cc3)c3cc(Cl)cnc32)cc1F [Example 187, 5-chloro-4-(5-chloro-3-(4-cyanophenyl)-1H-pyrrolo[2,3-b]pyridin-1-yl)-2-fluoro-N-(methylsulfonyl)benzamide]
[1]
  IC50: 620 nM

## CS(=O)(=O)NC(=O)c1cc(Cl)c(-n2cc(-c3ccc(C(F)(F)F)cc3)c3cc(Cl)cnc32)cc1F [Example 188, 5-chloro-4-(5-chloro-3-(4-(trifluoromethyl)phenyl)-1H-pyrrolo[2,3-b]pyridin-1-yl)-2-fluoro-N-(methylsulfonyl)benzamide]
  IC50: 50 nM

## CS(=O)(=O)NC(=O)c1cc(Cl)c(-n2cc(-c3ccc(Cl)cc3F)c3cc(Cl)cnc32)cc1F [Example 189, 5-chloro-4-(5-chloro-3-(4-chloro-2-fluorophenyl)-1H-pyrrolo[2,3-b]pyridin-1-yl)-2-fluoro-N-(methylsulfonyl)benzamide]
[1]
  IC50: 110 nM

## CS(=O)(=O)NC(=O)c1cc(Cl)c(-n2cc(-c3cccc(F)c3)c3cc(Cl)cnc32)cc1F [Example 190, 5-chloro-4-(5-chloro-3-(3-fluorophenyl)-1H-pyrrolo[2,3-b]pyridin-1-yl)-2-fluoro-N-(methylsulfonyl)benzamide]
[1]
  IC50: 170 nM

## CS(=O)(=O)NC(=O)c1cc(Cl)c(-n2cc(-c3ccccc3F)c3cc(Cl)cnc32)cc1F [Example 191, 5-chloro-4-(5-chloro-3-(2-fluorophenyl)-1H-pyrrolo[2,3-b]pyridin-1-yl)-2-fluoro-N-(methylsulfonyl)benzamide]
[1]
  IC50: 110 nM

## CS(=O)(=O)NC(=O)c1cc(Cl)c(-n2cc(-c3cccc(C(F)(F)F)c3)c3cc(Cl)cnc32)cc1F [Example 192, 5-chloro-4-(5-chloro-3-(3-(trifluoromethyl)phenyl)-1H-pyrrolo[2,3-b]pyridin-1-yl)-2-fluoro-N-(methylsulfonyl)benzamide]
[1]
  IC50: 270 nM

## CS(=O)(=O)NC(=O)c1cc(Cl)c(-n2cc(-c3ccccc3C(F)(F)F)c3cc(Cl)cnc32)cc1F [Example 193, 5-chloro-4-(5-chloro-3-(2-(trifluoromethyl)phenyl)-1H-pyrrolo[2,3-b]pyridin-1-yl)-2-fluoro-N-(methylsulfonyl)benzamide]
[1]
  IC50: 100 nM

## CS(=O)(=O)NC(=O)c1cc(Cl)c(-n2cc(-c3cccc(C#N)c3)c3cc(Cl)cnc32)cc1F [Example 194, 5-chloro-4-(5-chloro-3-(3-cyanophenyl)-1H-pyrrolo[2,3-b]pyridin-1-yl)-2-fluoro-N-(methylsulfonyl)benzamide]
[1]
  IC50: 480 nM

## CS(=O)(=O)NC(=O)c1cc(Cl)c(-n2cc(-c3ccc(Cl)cc3)c3cc(Cl)cnc32)cc1F [Example 195, 5-chloro-4-(5-chloro-3-(4-chlorophenyl)-1H-pyrrolo[2,3-b]pyridin-1-yl)-2-fluoro-N-(methylsulfonyl)benzamide]
[1]
  IC50: 80 nM

## COc1ccc(-c2cn(-c3cc(F)c(C(=O)NS(C)(=O)=O)cc3Cl)c3ncc(Cl)cc23)cc1 [Example 196, 5-chloro-4-(5-chloro-3-(4-methoxyphenyl)-1H-pyrrolo[2,3-b]pyridin-1-yl)-2-fluoro-N-(methylsulfonyl)benzamide]
[1]
  IC50: 130 nM

## CS(=O)(=O)NC(=O)c1cc(Cl)c(-n2cc(-c3ccc(F)cc3Cl)c3cc(Cl)cnc32)cc1F [Example 197, 5-chloro-4-(5-chloro-3-(2-chloro-4-fluorophenyl)-1H-pyrrolo[2,3-b]pyridin-1-yl)-2-fluoro-N-(methylsulfonyl)benzamide]
[1]
  IC50: 40 nM

## CS(=O)(=O)NC(=O)c1cc(Cl)c(-n2cc(-c3ccccc3Cl)c3cc(Cl)cnc32)cc1F [Example 198, 5-chloro-4-(5-chloro-3-(2-chlorophenyl)-1H-pyrrolo[2,3-b]pyridin-1-yl)-2-fluoro-N-(methylsulfonyl)benzamide]
[1]
  IC50: 170 nM

## COc1cc(F)ccc1-c1cn(-c2cc(F)c(C(=O)NS(C)(=O)=O)cc2Cl)c2ncc(Cl)cc12 [Example 199, 5-chloro-4-(5-chloro-3-(4-fluoro-2-methoxyphenyl)-1H-pyrrolo[2,3-b]pyridin-1-yl)-2-fluoro-N-(methylsulfonyl)benzamide]
[1]
  IC50: 200 nM

## Cc1cc(F)ccc1-c1cn(-c2cc(F)c(C(=O)NS(C)(=O)=O)cc2Cl)c2ncc(Cl)cc12 [Example 200, 5-chloro-4-(5-chloro-3-(4-fluoro-2-methylphenyl)-1H-pyrrolo[2,3-b]pyridin-1-yl)-2-fluoro-N-(methylsulfonyl)benzamide]
[1]
  IC50: 90 nM

## CS(=O)(=O)NC(=O)c1cc(Cl)c(-n2cc(-c3ccc(Cl)cc3F)c3cc(F)cnc32)cc1F [Example 201, 5-chloro-4-(3-(4-chloro-2-fluorophenyl)-5-fluoro-1H-pyrrolo[2,3-b]pyridin-1-yl)-2-fluoro-N-(methylsulfonyl)benzamide]
[1]
  IC50: 70 nM

## CS(=O)(=O)NC(=O)c1cc(Cl)c(-n2cc(-c3ccc(F)cc3Cl)c3cc(F)cnc32)cc1F [Example 202, 5-chloro-4-(3-(2-chloro-4-fluorophenyl)-5-fluoro-1H-pyrrolo[2,3-b]pyridin-1-yl)-2-fluoro-N-(methylsulfonyl)benzamide]
[1]
  IC50: 50 nM

## CS(=O)(=O)NC(=O)c1cc(Cl)c(-n2cc(-c3ccc(F)cc3F)c3cc(F)cnc32)cc1F [Example 203, 5-chloro-4-(3-(2,4-difluorophenyl)-5-fluoro-1H-pyrrolo[2,3-b]pyridin-1-yl)-2-fluoro-N-(methylsulfonyl)benzamide]
[1]
  IC50: 80 nM

## CS(=O)(=O)NC(=O)c1cc(Cl)c(-n2cc(-c3ccc(Cl)cc3)c3cc(F)cnc32)cc1F [Example 204, 5-chloro-4-(3-(4-chlorophenyl)-5-fluoro-1H-pyrrolo[2,3-b]pyridin-1-yl)-2-fluoro-N-(methylsulfonyl)benzamide]
[1]
  IC50: 100 nM

## CS(=O)(=O)NC(=O)c1cc(Cl)c(-n2cc(-c3ccc(C(F)(F)F)cc3)c3cc(F)cnc32)cc1F [Example 205, 5-chloro-2-fluoro-4-(5-fluoro-3-(4-(trifluoromethyl)phenyl)-1H-pyrrolo[2,3-b]pyridin-1-yl)-N-(methylsulfonyl)benzamide]
[1]
  IC50: 50 nM

## CS(=O)(=O)NC(=O)c1cc(Cl)c(-n2cc(-c3ccc(F)cc3)c3cc(F)cnc32)cc1F [Example 206, 5-chloro-2-fluoro-4-(5-fluoro-3-(4-fluorophenyl)-1H-pyrrolo[2,3-b]pyridin-1-yl)-N-(methylsulfonyl)benzamide]
[1]
  IC50: 210 nM

## CS(=O)(=O)NC(=O)c1cc(Cl)c(-n2cc(-c3ccccc3Cl)c3cc(F)cnc32)cc1F [Example 207, 5-chloro-4-(3-(2-chlorophenyl)-5-fluoro-1H-pyrrolo[2,3-b]pyridin-1-yl)-2-fluoro-N-(methylsulfonyl)benzamide]
[1]
  IC50: 140 nM

## CS(=O)(=O)NC(=O)c1cc(Cl)c(-n2cc(-c3cccc(Cl)c3)c3cc(F)cnc32)cc1F [Example 208, 5-chloro-4-(3-(3-chlorophenyl)-5-fluoro-1H-pyrrolo[2,3-b]pyridin-1-yl)-2-fluoro-N-(methylsulfonyl)benzamide]
[1]
  IC50: 50 nM

## CS(=O)(=O)NC(=O)c1cc(Cl)c(-n2cc(-c3ccc(Cl)cc3Cl)c3cc(F)cnc32)cc1F [Example 209, 5-chloro-4-(3-(2,4-dichlorophenyl)-5-fluoro-1H-pyrrolo[2,3-b]pyridin-1-yl)-2-fluoro-N-(methylsulfonyl)benzamide]
[1]
  IC50: 40 nM

## CS(=O)(=O)NC(=O)c1cc(Cl)c(-n2cc(-c3ccc(Cl)c(F)c3)c3cc(F)cnc32)cc1F [Example 210, 5-chloro-4-(3-(4-chloro-3-fluorophenyl)-5-fluoro-1H-pyrrolo[2,3-b]pyridin-1-yl)-2-fluoro-N-(methylsulfonyl)benzamide]
[1]
  IC50: 60 nM

## CS(=O)(=O)NC(=O)c1cc(Cl)c(-n2cc(-c3cccc(Cl)c3F)c3cc(F)cnc32)cc1F [Example 211, 5-chloro-4-(3-(3-chloro-2-fluorophenyl)-5-fluoro-1H-pyrrolo[2,3-b]pyridin-1-yl)-2-fluoro-N-(methylsulfonyl)benzamide]
  IC50: 40 nM
